From ChEMBL document CHEMBL1201862, “PubChem BioAssay data set” (2004)
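1) Cells in 96-well plates. 2) Compound, 48 h, 5 concentrations. 3) Linear interpolation between surrounding doses. 4) Unreached endpoint = highest concentration. At the GI50, growth is halved.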 Activity calls are given as the source filed them. Rule as the data show it: active = GI50 up to about 1.1 µM and inactive = higher.

Key:
Assay in all cases: inhibition of tumour cell growth, NCI panel, 48 h
SF-539 = system: SF-539
A498 = system: A498
ACHN = system: ACHN
M19-MEL = system: M19-MEL
SK-MEL-5 = system: SK-MEL-5
SW-620 = system: SW-620
HOP-92 = system: HOP-92
DMS-114 = system: DMS-114
XF498 = system: XF498
SF-268 = system: SF-268
HOP-18 = system: HOP-18
SNB-78 = system: SNB-78
SF-295 = system: SF-295
TK-10 = system: TK-10
NCI-H23 = system: NCI-H23
SK-OV-3 = system: SK-OV-3
Malme-3M = system: Malme-3M
CCRF-CEM = system: CCRF-CEM
SNB-75 = system: SNB-75
SN12C = system: SN12C
M14 = system: M14
EKVX = system: EKVX
DMS-273 = system: DMS-273
HT-29 = system: HT-29
OVCAR-8 = system: OVCAR-8
NCI-H460 = system: NCI-H460
LOX IMVI = system: LOX IMVI
NCI-H226 = system: NCI-H226
SK-MEL-2 = system: SK-MEL-2
HL-60 = system: HL-60
OVCAR-3 = system: OVCAR-3
LXFL 529 = system: LXFL 529
KM-20L2 = system: KM-20L2
UACC-62 = system: UACC-62
MOLT-4 = system: MOLT-4
SK-MEL-28 = system: SK-MEL-28
NCI-H522 = system: NCI-H522
SNB-19 = system: SNB-19
K562 = system: K562
RXF 631 = system: RXF 631
UO-31 = system: UO-31
COLO 205 = system: COLO 205
HCT-15 = system: HCT-15
RPMI-8226 = system: RPMI-8226
U-251 = system: U-251
CAKI-1 = system: CAKI-1
IGROV-1 = system: IGROV-1
UACC-257 = system: UACC-257
RXF 393 = system: RXF 393
HCT-116 = system: HCT-116
OVCAR-5 = system: OVCAR-5
OVCAR-4 = system: OVCAR-4
786-0 = system: 786-0
A549 = system: A549
DLD-1 = system: DLD-1
HOP-62 = system: HOP-62
KM12 = system: KM12
HCC 2998 = system: HCC 2998

Measured: GI50

COc1ccc(C2SCc3nc4ccccc4n32)cc1 (stereo unspecified)
active: XF498 0.124 µM | NCI-H522 0.986 µM
inactive: SF-539 5.66 µM | A498 5.13 µM | ACHN 5.04 µM | M19-MEL 3.95 µM | SK-MEL-5 3.84 µM | SW-620 3.44 µM | HOP-92 1.85 µM | DMS-114 2.26 µM | SF-268 5.43 µM | HOP-18 > 100 µM | SNB-78 8.95 µM | SF-295 2.94 µM | TK-10 23.2 µM | NCI-H23 4.04 µM | SK-OV-3 3.5 µM | Malme-3M 7.55 µM | CCRF-CEM 3.49 µM | SNB-75 1.82 µM | SN12C 4.41 µM | M14 4.95 µM | EKVX 19.5 µM | DMS-273 3.43 µM | HT-29 2.4 µM | OVCAR-8 6.07 µM | NCI-H460 3.86 µM | LOX IMVI 5.78 µM | NCI-H226 8.99 µM | SK-MEL-2 3.9 µM | HL-60 1.91 µM | OVCAR-3 6.28 µM | LXFL 529 5.48 µM | KM-20L2 2.4 µM | UACC-62 3.58 µM | MOLT-4 3.37 µM | SK-MEL-28 4.32 µM | SNB-19 6.07 µM | K562 2.34 µM | RXF 631 7.26 µM | UO-31 10 µM | COLO 205 2.73 µM | RPMI-8226 2.96 µM | U-251 3.33 µM | CAKI-1 2.21 µM | IGROV-1 4.66 µM
3.16 µM: HCT-15

N#CCc1ccc(/C(C#N)=C2/OC(=N)C(c3ccc(CC#N)cc3)C2=O)cc1 (stereo unspecified)
> 100 µM: HCT-15
inactive: SF-539 > 100 µM | A498 > 100 µM | ACHN > 100 µM | M19-MEL > 100 µM | SK-MEL-5 > 100 µM | SW-620 > 100 µM | HOP-92 > 100 µM | DMS-114 > 100 µM | XF498 > 100 µM | SF-268 > 100 µM | SNB-78 > 100 µM | UACC-257 > 100 µM | SF-295 > 100 µM | TK-10 > 100 µM | NCI-H23 > 100 µM | SK-OV-3 > 100 µM | Malme-3M > 100 µM | CCRF-CEM > 100 µM | SNB-75 > 100 µM | SN12C > 100 µM | M14 > 100 µM | EKVX > 100 µM | RXF 393 > 100 µM | DMS-273 > 100 µM | HCT-116 > 100 µM | HT-29 > 100 µM | OVCAR-8 > 100 µM | NCI-H460 > 100 µM | LOX IMVI > 100 µM | NCI-H226 > 100 µM | OVCAR-5 > 100 µM | SK-MEL-2 > 100 µM | HL-60 > 100 µM | OVCAR-3 > 100 µM | LXFL 529 > 100 µM | KM-20L2 > 100 µM | UACC-62 > 100 µM | MOLT-4 > 100 µM | SK-MEL-28 > 100 µM | NCI-H522 > 100 µM | OVCAR-4 > 100 µM | 786-0 > 100 µM | SNB-19 > 100 µM | A549 > 100 µM | K562 > 100 µM | RXF 631 > 100 µM | DLD-1 > 100 µM | UO-31 > 100 µM | COLO 205 > 100 µM | HOP-62 > 100 µM | RPMI-8226 > 100 µM | CAKI-1 > 100 µM | IGROV-1 > 100 µM

CCOC(=O)C1S/C(=N\c2ccc(OC)c(OC)c2)N=C1C (stereo unspecified)
28.6 µM: HCT-15
inactive: SF-539 53.2 µM | A498 52.7 µM | ACHN 33.6 µM | SK-MEL-5 18.4 µM | SW-620 42.7 µM | HOP-92 37.2 µM | DMS-114 28.5 µM | XF498 29.2 µM | KM12 31.3 µM | SF-268 33.6 µM | HOP-18 > 100 µM | SNB-78 48.5 µM | UACC-257 41.7 µM | SF-295 36.5 µM | TK-10 75.9 µM | NCI-H23 27.7 µM | SK-OV-3 62.7 µM | Malme-3M 37.7 µM | CCRF-CEM 22.1 µM | SNB-75 24.5 µM | SN12C 44.1 µM | M14 46.7 µM | EKVX 94.8 µM | RXF 393 29.9 µM | DMS-273 38.4 µM | HCT-116 32.7 µM | HT-29 18.8 µM | OVCAR-8 36.6 µM | NCI-H460 43.5 µM | LOX IMVI 32.5 µM | NCI-H226 64.1 µM | OVCAR-5 40.2 µM | SK-MEL-2 29.8 µM | HL-60 19.2 µM | OVCAR-3 29.5 µM | LXFL 529 33.3 µM | KM-20L2 27 µM | UACC-62 26.3 µM | SK-MEL-28 30.6 µM | NCI-H522 17 µM | OVCAR-4 40.2 µM | 786-0 29.2 µM | SNB-19 53.5 µM | A549 34.8 µM | K562 36.6 µM | RXF 631 47.6 µM | DLD-1 31.4 µM | UO-31 34.6 µM | COLO 205 69.3 µM | HOP-62 92 µM | HCC 2998 51.9 µM | U-251 36.2 µM | CAKI-1 39.3 µM | IGROV-1 56.6 µM
